Four compounds from ChEMBL document CHEMBL4402596, “Pyridine-Embedded Phenothiazinium Dyes as Lysosome-Targeted Photosensitizers for Highly Efficient Photodynamic Antitumor Therapy” (J Med Chem, 2020) can be followed below.

In data set [1] the test system is HT-29. The experiment in a line: Ratio of IC50 for cytotoxicity against human HT-29 cells in dark to IC50 for cytotoxicity against human HT-29 cells in light at 3.2J/cm2.
Data set [2] deals with A549. The experiment in a line: Cytotoxicity against human A549 cells assessed as reduction in cell viability incubated for 1 hr followed by light irradiation at 3.2 J/cm2 for 30 sec and measured after 24 hrs by MTT assay. The class given is functional, cell-based. Conditions: A549, light or radiation study. (Formazan colour is commonly taken as a measure of viable cells.)

In data set [3] the test system is HT-29. The experiment in a line: Induction of ROS generation in human HT-29 cells at 0.5 uM incubated for 0.5 hrs followed by DCFH-DA addition for 0.5 hrs then irradiated with light for 30 sec and measured after 15 mins by flow cytometry. The class given is functional, cell-based. A general note: Flow cytometry measures light scatter and fluorescence of single cells or particles in a stream.

Data set [4] relates to A549. The experiment in a line: Ratio of IC50 for cytotoxicity against human A549 cells in dark to IC50 for cytotoxicity against human A549 cells in light at 3.2J/cm2.
Data set [5] concerns MCF7. In words: Cytotoxicity against human MCF7 cells assessed as reduction in cell viability incubated for 1 hr followed by light irradiation for 30 sec at 3.2 J/cm2 and measured after 24 hrs by MTT assay. The settings on record: MCF7, light or radiation study. The class given is functional, cell-based.
Data set [6] relates to HT-29. The experiment in a line: Cytotoxicity against human HT-29 cells assessed as reduction in cell viability preincubated for 1 hr followed by light irradiation at 3.2 J/cm2 for 10 to 180 secs and measured after 24 hrs by MTT assay. The class given is functional, cell-based.
For data set [7], the system named is A549. In words: Cytotoxicity against human A549 cells assessed as reduction in cell viability incubated for 24 hrs in dark by MTT assay. The class given is cell-based. The settings on record: A549, 24 h.
The subject of data set [8] is HT-29. In words: Cytotoxicity against human HT-29 cells assessed as reduction in cell viability preincubated for 1 hr followed by light irradiation at 3.2 J/cm2 for 30 sec and measured after 24 hrs by MTT assay. The settings on record: HT-29, light or radiation study. The class given is functional, cell-based.
The test system of data set [9] is MCF7. The experiment in a line: Cytotoxicity against human MCF7 cells assessed as reduction in cell viability incubated for 24 hrs in dark by MTT assay. The class given is cell-based. The settings on record: MCF7, 24 h.
The nature of data set [10]: Induction of singlet oxygen generation in EtOH assessed as singlet oxygen quantum yield irradiated with 12.8 J light for 2 mins by DPBF-based assay. The class given is functional.
The test system of data set [11] is HT-29. In words: Cytotoxicity against human HT-29 cells assessed as reduction in cell viability incubated for 24 hrs in dark by MTT assay. The class given is cell-based. The settings on record: HT-29, 24 h.
Data set [12] in a line: Photostability of compound assessed as decrease in rate of photo decomposition at 5 uM irradiated with LED light (630 nm, 106 mW cm'-2) upto 12 mins by UV spectrophotometry.
Data set [13] can be described thus: Drug localization in lysosome of human HT-29 cells at 0.5 uM measured after 1 hr in dark by Lyso-tracker based confocal laser scanning microscopy. Conditions: ht-29, 1 h. The class given is ADME, subcellular.
Data set [14] has as its system MCF7. In words: Ratio of IC50 for cytotoxicity against human MCF7 cells in dark to IC50 for cytotoxicity against human MCF7 cells in light at 3.2J/cm2.
The subject of data set [15] is HT-29. The experiment in a line: Induction of morphological changes in nucleus of human HT-29 cells at 0.5 uM incubated for 18 hrs in dark by Hoechst 33342 staining based fluorescence microscopy. The class given is cell-based. Conditions: ht-29, 18 h.
Data set [16] in a line: Drug uptake in nucleus of human HT-29 cells at 0.5 uM incubated for 5 hrs by Hoechst 33342 staining based fluorescence microscopy. The class given is ADME, cell-based. Conditions: ht-29, 5 h.
Data set [17] deals with HT-29. The experiment in a line: Antitumor activity against human HT-29 cells xenografted in BALB/c mouse assessed as reduction in tumor volume at 2 mg/kg, iv after 2 hrs irradiated with light and measured on day 5. The class given is functional, organism-based. For orientation: In xenograft studies the graft and the host belong to different species.
Data set [18] can be described thus: Toxicity in BALB/c mouse xenografted with human HT-29 cells assessed as damage in spleen at 2 mg/kg, iv after 2 hrs irradiated with light and measured on day 24. The class given is organism-based. The settings on record: in vivo.
Data set [19] in a line: Toxicity in BALB/c mouse xenografted with human HT-29 cells assessed as damage on liver at 2 mg/kg, iv after 2 hrs irradiated with light and measured on day 24. The class given is organism-based. The settings on record: in vivo.
A short description of data set [20]: MRT (0 to infinity) in Sprague-Dawley rat at 2 mg/kg, iv measured upto 24 hrs by fluorescence based assay. The class given is ADME, organism-based. The settings on record: in vivo.
Data set [21] in a line: Toxicity in BALB/c mouse xenografted with human HT-29 cells assessed as damage on heart tissue at 2 mg/kg, iv after 2 hrs irradiated with light and measured on day 24. The class given is organism-based. Conditions: in vivo.
The nature of data set [22]: Drug localization in lysosome of human WI38 cells at 0.5 uM measured after 1 hr by LAMP1-GFP based confocal laser scanning microscopy. The class given is ADME, subcellular. The settings on record: wi-38, 1 h.
The nature of data set [23]: Drug localization in mitochondria of human WI38 cells at 0.5 uM measured after 1 hr by Mito-GFP based confocal laser scanning microscopy. Conditions: wi-38, 1 h. The class given is ADME.
For another data set, the system named is WI-38. The experiment in a line: Cytotoxicity against human WI38 cells assessed as reduction in cell viability incubated for 24 hrs in dark by MTT assay. The class given is cell-based. The settings on record: WI-38, 24 h.
Data set [24] in a line: Clearance in Sprague-Dawley rat at 2 mg/kg, iv measured upto 24 hrs by fluorescence based assay. The class given is ADME, organism-based. The settings on record: in vivo.
Data set [25] in a line: AUC (0 to infinity) in Sprague-Dawley rat at 2 mg/kg, iv measured upto 24 hrs by fluorescence based assay. The class given is ADME, organism-based. Also noted: dose 2 mg/kg, route intravenous, time infinity. The settings on record: in vivo.
Data set [26] is described as follows: Drug localization in mitochondria of human Ht-29 cells at 0.5 uM measured after 1 hr by Mito-GFP based confocal laser scanning microscopy. The class given is ADME. The settings on record: ht-29, 1 h.
Data set [27] is described as follows: AUC (0 to t) in Sprague-Dawley rat at 2 mg/kg, iv measured upto 24 hrs by fluorescence based assay. The class given is ADME, organism-based. Conditions: in vivo.
Data set [28] relates to HT-29. In words: Induction of morphological changes in nucleus of human HT-29 cells at 0.5 uM incubated in dark for 1 hr followed by irradiated with LED light for 30 sec and measured after 18 hrs by Hoechst 33342 staining based fluorescence microscopy. The class given is functional, cell-based.
Data set [29] in a line: Cmax in Sprague-Dawley rat at 2 mg/kg, iv measured upto 24 hrs by fluorescence based assay. The class given is ADME, organism-based. The arrangement: dose 2 mg/kg, route intravenous. The settings on record: in vivo.
Data set [30] is described as follows: Toxicity in BALB/c mouse xenografted with human HT-29 cells assessed as damage in kidney at 2 mg/kg, iv after 2 hrs irradiated with light and measured on day 24. The class given is organism-based. Conditions: in vivo.
The nature of data set [31]: Half life in Sprague-Dawley rat at 2 mg/kg, iv measured upto 24 hrs by fluorescence based assay. The class given is ADME, organism-based. Conditions: in vivo.
Data set [32] is described as follows: Drug localization in lysosome of human HT-29 cells at 0.5 uM measured after 1 hr by LAMP1-GFP based confocal laser scanning microscopy. The class given is ADME, subcellular. Conditions: ht-29, 1 h.
Data set [33] deals with HT-29. The experiment in a line: Antitumor activity against human HT-29 cells xenografted in BALB/c mouse assessed as reduction in tumor growth at 2 mg/kg, iv after 2 hrs irradiated with light and measured on day 5. The class given is functional, organism-based.
Data set [34] concerns HT-29. In words: Potency index, ratio of IC50 of methylene blue to IC50 of compound for cytotoxicity against human HT-29 cells assessed as reduction in cell viability incubated for 1 hr followed by light irradiation at 3.2 J/cm2 for 30 sec and measured after 24 hrs by MTT assay. The class given is functional.
Data set [35] in a line: Toxicity in BALB/c mouse xenografted with human HT-29 cells assessed as damage on lung at 2 mg/kg, iv after 2 hrs irradiated with light and measured on day 24. The class given is organism-based. Conditions: in vivo.
The test system of data set [36] is HT-29. The experiment in a line: Antitumor activity against human HT-29 cells xenografted in BALB/c mouse assessed as reduction in tumor volume at 2 mg/kg, iv after 2 hrs irradiated with light and measured on day 24. The class given is functional, organism-based.

Each structure is given as a SMILES string. The source made the active and inactive calls. The calls are words filed in the database; no cut-off is given here.

As to `CCCCCCCNc1cc2[s+]c3cc(N(CC)CC)ccc3nc2c2ccc(C)nc12.[Cl-]`, the “Ratio IC50” value was 8.47 in the data set on HT-29 [1], 4.6 in the data set on A549 [4] and 3.8 in the data set on MCF7 [14]. The IC50 in the data set on A549 [2] was 3.7 µM; in the data set with MCF7 [5], 3.8 µM; in the data set with A549 [7] it was 17.1 µM; in the data set with HT-29 [8], 1.05 µM; in the data set with MCF7 [9], 14.4 µM; in the data set on HT-29 [11], 8.89 µM. The result with HT-29 [3] and with HT-29 [6] was Active. The Activity in data set [10] was in the range of 0.08 to 0.14. In addition, in data set [12], the Stability result was “Stable”. Moreover, in data set [13], the Drug uptake entry is reported as “Active”.

Consider `CCCNc1cc2[s+]c3cc(N(CC)CC)ccc3nc2c2ccc(C)nc12.[Cl-]`, for which the Activity entry with HT-29 [15] is “Non-Toxic”; in [18] it was “Non-Toxic”; in [19], “Non-Toxic”; in data set [21] it was “Non-Toxic”; in data set [10], 0.08 to 0.14; in [30], “Non-Toxic”. Also, the Activity entry in [35] is listed as “Non-Toxic”. The “Ratio IC50” value in the data set with HT-29 [1] amounted to 53.8; in the data set on A549 [4], 9.1; in the data set with MCF7 [14] it was 5.1; in the data set on HT-29 [34], 235. Also, the Drug uptake entry in data set [16] is “Not Active”; in [22], “Active”; in data set [23], “Not Active”; in data set [26] it was “Not Active”; in [13], “Active”; in data set [32], “Active”. Moreover, the IC50 with A549 [2] was 0.34 µM; with MCF7 [5] it was 0.37 µM; in the data set on A549 [7], 3.1 µM; in the data set on HT-29 [8] it was 0.039 µM; in the data set on WI-38, above 10 µM; in the data set with MCF7 [9], 1.9 µM. Moreover, the IC50 in the data set with HT-29 [11] came to 2.1 µM. The result with HT-29 [3], with HT-29 [17], in the data set with HT-29 [6], in the data set on HT-29 [28], in the data set on HT-29 [33] and in the data set on HT-29 [36] was Active. The compound also had an MRT inf in data set [20] of 12.4 h. Further, the clearance in [24] is 0.44 L/h/kg. In data set [25], this compound registered an AUC of 4.55 µg·h/mL. Also, the Stability result in data set [12] is “Stable”. This compound also came in with an AUCt in data set [27] of 3.78 mg/h/L. The peak level in data set [29] (Cmax) was 2.18 µg/mL. Besides, the half-life in data set [31] was 7.81 h.

`CN(C)c1ccc2nc3ccc(N(C)C)cc3[s+]c2c1.[Cl-]` [METHYLENE BLUE ANHYDROUS]: in [16], the Drug uptake entry is given as “Active”. Moreover, the IC50 with HT-29 [8] is 9.2 µM; with HT-29 [11], above 10 µM.

Take `CCN(CC)c1ccc2nc3c(cc(N)c4nc(C)ccc43)[s+]c2c1.[Cl-]`: the results for the “Ratio IC50” value with HT-29 [1], in the data set with A549 [4] and in the data set on MCF7 [14] were 21.9, 3.6 and 2.2, respectively. The IC50 is 1.8 µM in the data set with A549 [2]; 0.5 µM in the data set with MCF7 [5]; 6.5 µM with A549 [7]; 0.21 µM in the data set with HT-29 [8]; 1.1 µM in the data set on MCF7 [9]; 4.6 µM in the data set on HT-29 [11]. Moreover, the outcome in the data set on HT-29 [3] and in the data set on HT-29 [6] was Active. For the same compound, the Activity in data set [10] was in the range of 0.08 to 0.14. In [12], the Stability entry is recorded as “Stable”. In [13], the Drug uptake entry is recorded as “Active”.

As usually defined, the IC50 is the concentration needed to halve the response being measured. The term MRT inf denotes the average time that molecules of a dose stay in the body. By clearance is commonly meant the volume of plasma or blood freed of the substance per unit of time. Read a high clearance as efficient removal. The AUC is the area under the concentration-time curve, a measure of exposure. As a reminder, the Cmax is the maximum level reached in the sampled fluid or tissue. What is called half-life is the time in which the quantity being followed falls by half. A lower half-life goes with fast loss.
